The values that follow come from patent US8540766B2, “Biofilm formation inhibitor and treatment device thereof” (Kyushu University, National University Corporation, priority 2004, dated 2013).

“And” between values parts separate entries of the source, which are not always exact repeats. Identical values can stand only once.

The test system of data set [1] is E. coli. Nature of the data set: Inhibitory effect of EGCg on biofilm formation on polyurethane discs (static, plate count). The data set is classed as cell-based. The note with it: E. coli 2×10^3 CFU/ml, 37 degrees Celsius, 24 hours, listed as epigallocatechin gallate (EGCg). Here is the method:
8 mm diameter disc shaped polyurethanes were cultured with an E. coli suspension (2×10^3 CFU/ml) which was mixed with various concentrations of epigallocatechin gallate (EGCg) (0-0.2 mM) under a static condition at 37 degrees Celsius for 24 hours in a culture plate. After incubations, the polyurethane discs were taken out, and having been washed in a phosphate buffer gently, they were moved to a 2 ml phosphate buffer, where they were sonicated to detach the adhered E. coli. Viable E. coli cell counts in the liquid were calculated by the plate count method.

Another data set concerns E. coli in biofilm. Briefly: Effect of EGCg on living microbes after biofilm formation. The data set is classed as cell-based. The note with it: 24 hours biofilm, then 24 hours exposure; listed as epigallocatechin gallate (EGCg). As to the method:
Biofilms were formed on polyurethane surfaces after incubating 8 mm diameter polyurethane discs placed in a culture plate with an E. coli suspension (2×10^3 CFU/ml) under a static condition at 37 degrees Celsius for 24 hours. After adding solutions with various degrees of epigallocatechin gallate (EGCg) concentration (0-50 mM) to the biofilm surfaces that were formed, they were exposed for another 24 hours. After the polyurethane discs were taken out, and washed with a phosphate buffer solution gently, they were moved to a 2 ml phosphate buffer solution and sonicated to detach adhered E. coli. Viable E. coli cell count in this liquid was counted by the plate count method. […] These levels of concentration are much higher compared to the Example 1 where catechin was placed from the beginning of incubation.

The test system of data set [2] is E. coli. Briefly: Sensitivity of E. coli to EGCg (dilution method, MIC). The data set is classed as cell-based. The note with it: E. coli 1×10^7 CFU/ml, 37 degrees Celsius, 24 hours, static. As to the method:
Sensitivity of E. coli to EGCg was examined by a general sensibility test method (dilution method). E. coli suspensions (1×10^7 CFU/ml), in which gradually diluted (0.16, 0.31, 0.63, 1.25, 2.5, 5.0 mM) epigallocatechin gallate (EGCg) solutions were mixed, were placed in a culture plate and incubated at 37 degrees Celsius for 24 hours under a static condition. Minimal inhibitory concentration (MIC) was defined as the smallest EGCg concentration in which no bacteria growth is recognized macroscopically.

Data set [3] deals with E. coli. The note with it: comparison among catechins; cited from earlier work.
The conditions of data set [4]: high dosage long-term oral administration; cited from earlier work.

Consider `O=C(O[C@@H]1Cc2c(O)cc(O)cc2O[C@@H]1c1cc(O)c(O)c(O)c1)c1cc(O)c(O)c(O)c1` [EGCg, epigallocatechin gallate], for which, in the data set on E. coli [1], the “concentration at which biofilm formation is inhibited completely” value is ≥ 0.15 mM and ≥ 0.069 mg/ml; the “concentration at which biofilm formation is inhibited significantly” value was ≥ 0.12 mM and ≥ 0.055 mg/ml. In the data set on E. coli in biofilm, the “concentration at which E. coli in biofilm were exterminated completely” value was 50 mM and 23 mg/ml; the “concentration at which viable cell counts in formed biofilm decreased significantly” value was ≥ 8 mM and ≥ 3.7 mg/ml. For the same molecule, the “minimal inhibitory concentration (MIC)” value in the data set with E. coli [2] is 0.63 mM and 287 μg/ml. Also, the “antibacterial action / minimal inhibitory concentration against E. coli, among the catechins” value with E. coli [3] is listed as “smallest minimal inhibitory concentration against E. coli”. For the same molecule, the “side effects / safety to the human body” value in data set [4] is “no side effect has been reported”.
